Several values for one entry are separate records, joined by “and”; a condition that tells them apart may be missing. Identical values can stand only once. Numbers after ± are expanded uncertainties.
Conditions: Liquid, Closed cell (Static) method

CC(C)OC(C)C [diisopropyl ether]
Conditions	vapor or sublimation pressure
284.93 K	10.74 ± 0.11 kPa and 10.75 ± 0.11 kPa
294.9 K	17.21 ± 0.18 kPa
294.91 K	17.21 ± 0.18 kPa
304.87 K	26.57 ± 0.27 kPa
304.89 K	26.58 ± 0.27 kPa
314.86 K	39.71 ± 0.41 kPa
314.87 K	39.72 ± 0.41 kPa
324.85 K	57.64 ± 0.59 kPa
324.87 K	57.65 ± 0.59 kPa
334.85 K	81.41 ± 0.83 kPa and 81.42 ± 0.83 kPa
344.84 K	112.36 ± 1.1 kPa
344.85 K	112.39 ± 1.1 kPa
354.87 K	151.81 ± 1.5 kPa
354.88 K	151.82 ± 1.5 kPa

CCOCC [diethyl ether]
Conditions	vapor or sublimation pressure
255.47 K	10.11 ± 0.1 kPa
255.48 K	10.13 ± 0.1 kPa
255.5 K	10.14 ± 0.1 kPa
265.44 K	17.06 ± 0.17 kPa
265.45 K	17.07 ± 0.17 kPa
274.86 K	26.9 ± 0.27 kPa
274.87 K	26.91 ± 0.27 kPa
284.83 K	41.98 ± 0.43 kPa
284.84 K	42 ± 0.43 kPa
294.77 K	62.89 ± 0.64 kPa
294.78 K	62.93 ± 0.64 kPa
304.75 K	91.58 ± 0.93 kPa and 91.56 ± 0.93 kPa
304.76 K	91.6 ± 0.93 kPa
314.74 K	129.3 ± 1.3 kPa and 129.45 ± 1.3 kPa
314.75 K	129.42 ± 1.3 kPa
324.89 K	179.51 ± 1.8 kPa and 179.65 ± 1.8 kPa and 179.77 ± 1.8 kPa

COC(C)(C)C [2-methoxy-2-methylpropane]
Conditions	vapor or sublimation pressure
274.9 K	11.59 ± 0.12 kPa
274.91 K	11.59 ± 0.12 kPa
284.82 K	18.55 ± 0.19 kPa
294.8 K	28.78 ± 0.29 kPa
294.81 K	28.78 ± 0.29 kPa
304.79 K	43.24 ± 0.44 kPa and 43.26 ± 0.44 kPa
314.75 K	62.95 ± 0.64 kPa
314.76 K	62.97 ± 0.64 kPa
324.9 K	89.66 ± 0.91 kPa and 89.69 ± 0.91 kPa
334.85 K	124.02 ± 1.3 kPa
344.84 K	167.14 ± 1.7 kPa
344.85 K	167.57 ± 1.7 kPa
354.82 K	221.79 ± 2.2 kPa and 221.39 ± 2.2 kPa

ClCCCl [1,2-dichloroethane]
Conditions	vapor or sublimation pressure
284.86 K	5.38 ± 0.06 kPa
284.87 K	5.37 ± 0.06 kPa
294.83 K	8.96 ± 0.09 kPa
294.84 K	8.95 ± 0.09 kPa
304.82 K	14.33 ± 0.15 kPa and 14.32 ± 0.15 kPa
314.81 K	22.18 ± 0.23 kPa
314.83 K	22.18 ± 0.23 kPa
324.82 K	33.28 ± 0.34 kPa
324.83 K	33.27 ± 0.34 kPa
334.79 K	48.45 ± 0.49 kPa
334.82 K	48.46 ± 0.49 kPa
344.81 K	67.97 ± 0.69 kPa
344.82 K	67.98 ± 0.69 kPa
354.89 K	94.95 ± 0.97 kPa and 94.94 ± 0.97 kPa

Source: the NIST ThermoML archive (doi:10.1016/j.fluid.2008.03.015)
